Reference: US8980569B2, “Chronic lymphocytic leukemia prognosis and treatment” (Duke University, priority 2007, dated 2015)

System: CLL cells
Conditions: freshly isolated CLL cells

## COc1cc2c(cc1O)CC[C@@H]1[C@@H]2CC[C@]2(C)[C@@H](O)CC[C@@H]12 [2-ME, 2-methoxyestradiol]
At 10 μM, 72 hours
  percent cytotoxicity: 71%
read-out: effective dose for 50% killing (ED50), incubated 72 hours
  EC50: 7.5 µM
